PubChem BioAssay (NCI)
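These data come from cells grown in 96-well plates and exposed to compound for 48 hours at five concentrations. Abbreviation: GI50, concentration required for 50% inhibition of growth. TGI: total growth inhibition.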

Key:
Test in all cases: NCI anticancer screen, dose series, 48 h
SF-295 CNS = tested on: SF-295 CNS
HCT-116 colon = tested on: HCT-116 colon
OVCAR-4 ovarian = tested on: OVCAR-4 ovarian
UACC-257 melanoma = tested on: UACC-257 melanoma
A549 NSCLC = tested on: A549 NSCLC
MDA-MB-231 breast = tested on: MDA-MB-231 breast
EKVX NSCLC = tested on: EKVX NSCLC
SK-MEL-5 melanoma = tested on: SK-MEL-5 melanoma
NCI-H460 lung = tested on: NCI-H460 lung
OVCAR-3 ovarian = tested on: OVCAR-3 ovarian
UO-31 renal = tested on: UO-31 renal
HCC-2998 colon = tested on: HCC-2998 colon
NCI-H23 lung = tested on: NCI-H23 lung
MOLT-4 leukemia = tested on: MOLT-4 leukemia
NCI-H226 lung = tested on: NCI-H226 lung
MALME-3M melanoma = tested on: MALME-3M melanoma
HS 578T breast = tested on: HS 578T breast
SK-MEL-28 melanoma = tested on: SK-MEL-28 melanoma
K-562 leukemia = tested on: K-562 leukemia
NCI/ADR-RES ovarian = tested on: NCI/ADR-RES ovarian
CAKI-1 renal = tested on: CAKI-1 renal
TK-10 renal = tested on: TK-10 renal
MCF7 breast = tested on: MCF7 breast
HT29 colon = tested on: HT29 colon
RPMI-8226 leukemia = tested on: RPMI-8226 leukemia
A498 renal = tested on: A498 renal
M14 melanoma = tested on: M14 melanoma
SNB-19 CNS = tested on: SNB-19 CNS
HCT-15 colon = tested on: HCT-15 colon
KM12 colon = tested on: KM12 colon
PC-3 prostate = tested on: PC-3 prostate
HOP-62 NSCLC = tested on: HOP-62 NSCLC
IGROV1 ovarian = tested on: IGROV1 ovarian
U251 CNS = tested on: U251 CNS
UACC-62 melanoma = tested on: UACC-62 melanoma
SR leukemia = tested on: SR leukemia
786-0 renal = tested on: 786-0 renal
SF-539 CNS = tested on: SF-539 CNS
SN12C renal = tested on: SN12C renal
ACHN renal = tested on: ACHN renal
LOX IMVI melanoma = tested on: LOX IMVI melanoma
HOP-92 NSCLC = tested on: HOP-92 NSCLC
COLO 205 colon = tested on: COLO 205 colon
OVCAR-8 ovarian = tested on: OVCAR-8 ovarian
DU-145 prostate = tested on: DU-145 prostate
OVCAR-5 ovarian = tested on: OVCAR-5 ovarian
RXF 393 renal = tested on: RXF 393 renal
SF-268 CNS = tested on: SF-268 CNS
SW-620 colon = tested on: SW-620 colon
T-47D breast = tested on: T-47D breast
CCRF-CEM leukemia = tested on: CCRF-CEM leukemia
SK-MEL-2 melanoma = tested on: SK-MEL-2 melanoma
SK-OV-3 ovarian = tested on: SK-OV-3 ovarian
BT-549 breast = tested on: BT-549 breast
NCI-H522 lung = tested on: NCI-H522 lung
SNB-75 CNS = tested on: SNB-75 CNS

**Q.** With `O=C(Nc1nc(-c2ccc(Cl)cc2)cs1)c1cc(-c2ccc(Br)cc2)nc2ccc(Cl)cc12` as the compound, how does the GI50 (SF-295 CNS) read?
**A.** 4.42 µM

**Q.** What about the TGI (SF-295 CNS) of the same compound?
**A.** 58.6 µM

**Q.** What about the GI50 (HCT-116 colon) of the same compound?
**A.** 0.876 µM

**Q.** What about the TGI (HCT-116 colon) of the same compound?
**A.** 11.3 µM

**Q.** And the GI50 (OVCAR-4 ovarian)?
**A.** 7.1 µM

**Q.** And the TGI (OVCAR-4 ovarian)?
**A.** > 100 µM

**Q.** And the GI50 (UACC-257 melanoma)?
**A.** 24.1 µM

**Q.** And the TGI (UACC-257 melanoma)?
**A.** > 100 µM

**Q.** What about the GI50 (A549 NSCLC) of the same compound?
**A.** 43.8 µM

**Q.** And the TGI (A549 NSCLC)?
**A.** > 100 µM

**Q.** What about the GI50 (MDA-MB-231 breast) of the same compound?
**A.** 3.02 µM

**Q.** What about the TGI (MDA-MB-231 breast) of the same compound?
**A.** 15.3 µM

**Q.** What about the GI50 (EKVX NSCLC) of the same compound?
**A.** 15.3 µM

**Q.** And the TGI (EKVX NSCLC)?
**A.** > 100 µM

**Q.** And the GI50 (SK-MEL-5 melanoma)?
**A.** 3.28 µM

**Q.** And the TGI (SK-MEL-5 melanoma)?
**A.** 13.1 µM

**Q.** And the GI50 (NCI-H460 lung)?
**A.** 32.7 µM

**Q.** What about the TGI (NCI-H460 lung) of the same compound?
**A.** > 100 µM

**Q.** What about the GI50 (OVCAR-3 ovarian) of the same compound?
**A.** 2.86 µM

**Q.** And the TGI (OVCAR-3 ovarian)?
**A.** 9.19 µM

**Q.** And the GI50 (UO-31 renal)?
**A.** 3.45 µM

**Q.** What about the TGI (UO-31 renal) of the same compound?
**A.** > 100 µM

**Q.** What about the GI50 (HCC-2998 colon) of the same compound?
**A.** 19.4 µM

**Q.** What about the TGI (HCC-2998 colon) of the same compound?
**A.** > 100 µM

**Q.** And the GI50 (NCI-H23 lung)?
**A.** 5.64 µM

**Q.** And the TGI (NCI-H23 lung)?
**A.** > 100 µM

**Q.** And the GI50 (MOLT-4 leukemia)?
**A.** 3.77 µM

**Q.** What about the TGI (MOLT-4 leukemia) of the same compound?
**A.** > 100 µM

**Q.** And the GI50 (NCI-H226 lung)?
**A.** 2.98 µM

**Q.** And the TGI (NCI-H226 lung)?
**A.** 15.4 µM

**Q.** What about the GI50 (MALME-3M melanoma) of the same compound?
**A.** 5.59 µM

**Q.** And the TGI (MALME-3M melanoma)?
**A.** 76.5 µM

**Q.** What about the GI50 (HS 578T breast) of the same compound?
**A.** 2.71 µM

**Q.** And the TGI (HS 578T breast)?
**A.** 18.2 µM

**Q.** What about the GI50 (SK-MEL-28 melanoma) of the same compound?
**A.** 5.62 µM

**Q.** And the TGI (SK-MEL-28 melanoma)?
**A.** > 100 µM

**Q.** And the GI50 (K-562 leukemia)?
**A.** 3.36 µM

**Q.** And the TGI (K-562 leukemia)?
**A.** > 100 µM

**Q.** What about the GI50 (NCI/ADR-RES ovarian) of the same compound?
**A.** 3.97 µM

**Q.** And the TGI (NCI/ADR-RES ovarian)?
**A.** > 100 µM

**Q.** What about the GI50 (CAKI-1 renal) of the same compound?
**A.** 20.5 µM

**Q.** What about the TGI (CAKI-1 renal) of the same compound?
**A.** > 100 µM

**Q.** What about the GI50 (TK-10 renal) of the same compound?
**A.** 29.2 µM

**Q.** What about the TGI (TK-10 renal) of the same compound?
**A.** > 100 µM

**Q.** What about the GI50 (MCF7 breast) of the same compound?
**A.** 2.62 µM

**Q.** And the TGI (MCF7 breast)?
**A.** > 100 µM

**Q.** And the GI50 (HT29 colon)?
**A.** 3.89 µM

**Q.** What about the TGI (HT29 colon) of the same compound?
**A.** > 100 µM

**Q.** And the GI50 (RPMI-8226 leukemia)?
**A.** 3.73 µM

**Q.** And the TGI (RPMI-8226 leukemia)?
**A.** > 100 µM

**Q.** What about the GI50 (A498 renal) of the same compound?
**A.** 30.7 µM

**Q.** What about the TGI (A498 renal) of the same compound?
**A.** > 100 µM

**Q.** And the GI50 (M14 melanoma)?
**A.** 2.16 µM

**Q.** What about the TGI (M14 melanoma) of the same compound?
**A.** 11.2 µM

**Q.** What about the GI50 (SNB-19 CNS) of the same compound?
**A.** 5.22 µM

**Q.** What about the TGI (SNB-19 CNS) of the same compound?
**A.** > 100 µM

**Q.** What about the GI50 (HCT-15 colon) of the same compound?
**A.** 3.12 µM

**Q.** What about the TGI (HCT-15 colon) of the same compound?
**A.** 26.6 µM

**Q.** And the GI50 (KM12 colon)?
**A.** 3.35 µM

**Q.** And the TGI (KM12 colon)?
**A.** 27.1 µM

**Q.** What about the GI50 (PC-3 prostate) of the same compound?
**A.** 4.16 µM

**Q.** And the TGI (PC-3 prostate)?
**A.** > 100 µM

**Q.** What about the GI50 (HOP-62 NSCLC) of the same compound?
**A.** 4.66 µM

**Q.** What about the TGI (HOP-62 NSCLC) of the same compound?
**A.** > 100 µM

**Q.** And the GI50 (IGROV1 ovarian)?
**A.** 2.7 µM

**Q.** And the TGI (IGROV1 ovarian)?
**A.** > 100 µM

**Q.** And the GI50 (U251 CNS)?
**A.** 4.39 µM

**Q.** What about the TGI (U251 CNS) of the same compound?
**A.** 37.8 µM

**Q.** What about the GI50 (UACC-62 melanoma) of the same compound?
**A.** 3.49 µM

**Q.** What about the TGI (UACC-62 melanoma) of the same compound?
**A.** 22.6 µM

**Q.** And the GI50 (SR leukemia)?
**A.** 3.72 µM

**Q.** And the TGI (SR leukemia)?
**A.** > 100 µM

**Q.** And the GI50 (786-0 renal)?
**A.** 3.53 µM

**Q.** What about the TGI (786-0 renal) of the same compound?
**A.** 67.1 µM

**Q.** What about the GI50 (SF-539 CNS) of the same compound?
**A.** 2.78 µM

**Q.** And the TGI (SF-539 CNS)?
**A.** 10.4 µM

**Q.** And the GI50 (SN12C renal)?
**A.** 4.78 µM

**Q.** And the TGI (SN12C renal)?
**A.** 54.6 µM

**Q.** What about the GI50 (ACHN renal) of the same compound?
**A.** 5.18 µM

**Q.** And the TGI (ACHN renal)?
**A.** > 100 µM

**Q.** What about the GI50 (LOX IMVI melanoma) of the same compound?
**A.** 2.77 µM

**Q.** And the TGI (LOX IMVI melanoma)?
**A.** > 100 µM

**Q.** What about the GI50 (HOP-92 NSCLC) of the same compound?
**A.** 2.98 µM

**Q.** And the TGI (HOP-92 NSCLC)?
**A.** 22.2 µM

**Q.** And the GI50 (COLO 205 colon)?
**A.** 26.9 µM

**Q.** And the TGI (COLO 205 colon)?
**A.** > 100 µM

**Q.** And the GI50 (OVCAR-8 ovarian)?
**A.** 3.94 µM

**Q.** What about the TGI (OVCAR-8 ovarian) of the same compound?
**A.** 62.4 µM

**Q.** And the GI50 (DU-145 prostate)?
**A.** 3.67 µM

**Q.** What about the TGI (DU-145 prostate) of the same compound?
**A.** > 100 µM

**Q.** And the GI50 (OVCAR-5 ovarian)?
**A.** 28.6 µM

**Q.** What about the TGI (OVCAR-5 ovarian) of the same compound?
**A.** > 100 µM

**Q.** And the GI50 (RXF 393 renal)?
**A.** 19.1 µM

**Q.** And the TGI (RXF 393 renal)?
**A.** 89.7 µM

**Q.** And the GI50 (SF-268 CNS)?
**A.** 3.86 µM

**Q.** And the TGI (SF-268 CNS)?
**A.** 36.4 µM

**Q.** And the GI50 (SW-620 colon)?
**A.** 4.35 µM

**Q.** What about the TGI (SW-620 colon) of the same compound?
**A.** > 100 µM

**Q.** And the GI50 (T-47D breast)?
**A.** 16.1 µM

**Q.** What about the TGI (T-47D breast) of the same compound?
**A.** > 100 µM

**Q.** What about the GI50 (CCRF-CEM leukemia) of the same compound?
**A.** 4.06 µM

**Q.** And the TGI (CCRF-CEM leukemia)?
**A.** > 100 µM

**Q.** And the GI50 (SK-MEL-2 melanoma)?
**A.** 6.69 µM

**Q.** What about the TGI (SK-MEL-2 melanoma) of the same compound?
**A.** > 100 µM

**Q.** What about the GI50 (SK-OV-3 ovarian) of the same compound?
**A.** 34.2 µM

**Q.** What about the TGI (SK-OV-3 ovarian) of the same compound?
**A.** > 100 µM

**Q.** And the GI50 (BT-549 breast)?
**A.** 2.47 µM

**Q.** And the TGI (BT-549 breast)?
**A.** 7.89 µM

**Q.** What about the GI50 (NCI-H522 lung) of the same compound?
**A.** 7.87 µM

**Q.** What about the TGI (NCI-H522 lung) of the same compound?
**A.** > 100 µM

**Q.** What about the GI50 (SNB-75 CNS) of the same compound?
**A.** 3.63 µM

**Q.** And the TGI (SNB-75 CNS)?
**A.** > 100 µM
